Type in all cases: in vivo, human
One experiment concerns DG/CA3. The experiment can be described thus: fMRI activity during explicit 3-alternative forced choice task, DG/CA3. Conditions: aMCI subjects, 125 mg twice a day for two weeks, versus placebo. How it is done: A within-subjects trial of 8 weeks duration, involving 17 amnestic MCI (aMCI) subjects and 17 age-matched controls with a low dose treatment of levetiracetam is conducted. During the course of the study, each aMCI subject receives both drug and placebo treatments separately in two periods of two weeks each, with the order of treatments among different aMCI subjects counterbalanced (see FIG. 7). Age-matched control subjects treated with placebo serve as a further control. Cognitive testing and fMRI imaging data are obtained from the subjects after each two week period of drug/placebo treatment. As described above, the drug treatment period is the two weeks preceding Visit 1 or 2 (with the two week period preceding the other Visit being the placebo phase). […] Imaging data are obtained through high-resolution methods developed in the Stark laboratory. Data are collected on a Phillips 3 Tesla scanner (Eindhoven, The Netherlands) equipped with an 8-channel SENSE (Sensitivity Encoding) head coil, located at the F.M. Kirby Research Center for Functional Brain Imaging at the Kennedy Krieger Institute (Baltimore, Md.). […] Group data are analyzed using a two-way Analysis of Variance (ANOVA) with trial types and group as fixed factors, and subject as a random factor nested within group. […]

Experiment [1] has as its system aMCI subjects. Description: Buschke Selective Reminding Test - Delayed Recall. The following applies: 125 mg twice a day for two weeks. On the procedure:
(§1) A within-subjects trial of 8 weeks duration, involving 17 amnestic MCI (aMCI) subjects and 17 age-matched controls with a low dose treatment of levetiracetam is conducted. During the course of the study, each aMCI subject receives both drug and placebo treatments separately in two periods of two weeks each, with the order of treatments among different aMCI subjects counterbalanced (see FIG. 7). Age-matched control subjects treated with placebo serve as a further control. Cognitive testing and fMRI imaging data are obtained from the subjects after each two week period of drug/placebo treatment.
All participants undergo neuropsychological evaluation at the time of assessment for treatment efficacy (Visits 1 and 2), as well as at the Baseline Visit. The evaluation occurs outside of the scanner and includes the Buschke Selective Reminding Test (Buschke and Fuld, 1974) and the Verbal Paired Associates subtest, the Logical Memory subtest, the Visual Reproduction subtest of the Wechsler Memory Scale-Revised (WMS-R) (Wechsler, 1997), and the Benton Visual Retention Test, as these tasks are particularly sensitive to medial temporal lobe function and early memory problems (Marquis et al., 2002 and Masur et al., 1994). […]

Experiment [2] concerns aMCI subjects. The experiment can be described thus: Verbal Paired Associates Test - Recognition. Conditions: 125 mg twice a day for two weeks. On the procedure: as §1
(§2) All participants undergo neuropsychological evaluation at the time of assessment for treatment efficacy (Visits 1 and 2), as well as at the Baseline Visit. […]
(§3) As described above, the drug treatment period is the two weeks preceding Visit 1 or 2 (with the two week period preceding the other Visit being the placebo phase). For the subjects receiving the drug treatment, half a scored 250 mg tablet of levetiracetam is used to achieve a dose of […], which is approximately 3.6 mg/kg/day (assuming an average adult human weight of 70 kg).

Experiment [3] relates to aMCI subjects. The experiment can be described thus: Verbal Paired Associates Test - Delayed Recall. Conditions: 125 mg twice a day for two weeks. How it is done:
as §1, §2, §3

Each structure is given as a SMILES string.

With `CC[C@@H](C(N)=O)N1CCCC1=O` [levetiracetam, (2S)-2-(2-oxopyrrolidin-1-yl) butanamide], the “DG/CA3 activity during lure stimuli correctly identified as similar” value with DG/CA3 is on record as “reduces DG/CA3 hyper-activity”. Also, the “performance in Buschke Selective Reminding Test - Delayed Recall” value with aMCI subjects [1] is recorded as “fail to rescue performance”. Further, the “performance in Verbal Paired Associates Test - Recognition” value in the experiment with aMCI subjects [2] is listed as “fail to rescue performance”. Moreover, the “performance in Verbal Paired Associates Test - Delayed Recall” value in the experiment on aMCI subjects [3] was “fail to rescue performance”.

Source of the values: US10624875B2, “Methods and compositions for treating schizophrenia” (The Johns Hopkins University, priority 2012, dated 2020).
